Data set [1] deals with T1, DOR (Rattus norvegicus, UniProt P33533).
T1 construct: from tissue; host or cells: rat brain membranes
Kind of data set: DOR competitive radioligand binding ([3H]-DPDPE displacement, rat brain membranes).

Data set [2] addresses T2, MOR (Rattus norvegicus, UniProt P33535). Kind of data set: MOR competitive radioligand binding ([3H]-DAMGO displacement, rat brain membranes). Also noted: from tissue; host or cells: rat brain membranes.
The target in data set [3] is T3, KOR (Cavia porcellus, UniProt P41144).
T3 construct: from tissue; host or cells: guinea pig brain membranes
Briefly: KOR competitive radioligand binding ([3H]-(+)-U69,593 displacement, guinea pig brain membranes).

Data set [4] concerns the target T2, MOR. Kind of data set: Inhibition of forskolin-stimulated cAMP accumulation in HEK293 cells stably expressing MOR. In kind it is cell-based. Particulars: for Emax: maximal percent inhibition of cAMP accumulation, read-out: Imax (%) ± SD MOR. As for the experimental part:
As typical Gi/o coupled receptor, MOR, DOR and KOR signals are mediated by AC inhibition.
(§1) Cell culture. HEK293 cells stably expressing either the EE-tagged MOR or the flag-tagged KOR [20, 21, 22] were grown in Dulbecco’s modified Eagle’s medium (DMEM) supplemented with 10% fetal calf serum, 2 mM glutamine, 100 U/mL penicillin, and 0.1 mg/mL streptomycin under 5% CO2 at 37 °C.
(§2) Measurements of cAMP accumulation. Measurements of AC activity were performed as described by Papakonstantinou et al. or the GloSensor cAMP Assay (Promega) following the Manufacturer’s instructions. The generation of cAMP was assessed in response to treatment of the cells with various concentrations of the appropriate ligand (10 pM–50 μΜ) using 50 μΜ forskolin at 37 °C. Values are means ± SD of triplicate determinations from three independent experiments. Analysis of the data was performed using Origin 7.5 software (OriginLab Corporation, Northampton, MA, USA).

Data set [5] deals with T4, KOR (Homo sapiens, UniProt P41145).
T4 construct: FLAG; expressed in transfected cells
Briefly: Inhibition of forskolin-stimulated cAMP accumulation in HEK293 cells stably expressing KOR. The class given is cell-based. Particulars: for Imax (%) ± SD KOR: maximal percent inhibition of cAMP accumulation; for Imax (%) ± SD KOR / cAMP inhibition: HEK293-KOR; for cAMP inhibition: only at very high concentrations, not dose-dependent. As for the experimental part: As typical Gi/o coupled receptor, MOR, DOR and KOR signals are mediated by AC inhibition. Given the significant MOR and moderate KOR affinity, to examine the functional role of target compounds, in opioid receptor signaling, the ability of 5a–d and 6a–d to affect forskolin-stimulated AC activity in HEK293 cells stably expressing the MOR or KOR was tested and the results are reported in Table 2.
as §1, §2

In data set [6] the test system is acute thermal nociception. Kind of data set: Radiant heat tail flick test in mice. In kind it is in vivo, mouse. As for the experimental part: The MOR agonist 5c was evaluated for acute agonistic effects in mice. In detail, it was tested for its ability to produce antinociception in the mouse tail flick test at the dose-range of 1–7 mg/kg intraperitoneal (ip) injected. The compound produced a dose-dependent analgesic effect compared to the group of mice treated with saline (* p < 0.05 vs. saline-treated mice).
Animals. Male Swiss […] mice (Envigo Laboratories, S. Pietro al Natisone (UD), Italy) weighing 25–30 g were housed six to a cage. Animals were kept at a constant room temperature (25 ± 1 °C) under a 12:12 h light and dark cycle with free access to food and water. Each mouse was used for only one experiment.
Nociceptive Test. Nociception was evaluated by the radiant heat tail-flick test. Briefly, it consisted of irradiation of the lower third of the tail with an infrared source (Ugo Basile, Comerio, Italy). The day before the experiment, mice were habituated to the procedure for measuring nociception threshold. Experiments were performed at room temperature (25 ± 1 °C). The basal pre-drug latency was established between 3 and 5 s and was calculated as the average of the first three measurements, which were performed at 5 min intervals. A cut-off latency of 15 s was established to minimize damage to the tail. All tested compounds were dissolved in pyrogen-free isotonic saline (Baxter Healthcare, Deerfield, IL, USA) and DMSO (5%) and were administered to mice ip. Post-treatment tail flick latencies (TFLs) were determined at 30, 45, 60, 75 and 90 min after ip injection.
Statistical Analysis. All values were presented as means ± SD. Intergroup comparisons were assessed using an initial two-way analysis of variance (ANOVA) followed by Duncan’s multiple range post-hoc test. Differences were considered significant when * p < 0.05. Effective dose-50 (ED50) values were calculated using least-squares linear regression analysis followed by calculation of 95% confidence limits (95% CL) by the method of Bliss.
On the technique in general: In hot-plate and tail-flick tests a longer latency is read as antinociception.

Structures can show the parent of a compound that is named as a salt.

As a reminder, the melting point is the temperature, or range, at which the solid turns liquid. With `C[C@H]1[C@H]2Cc3ccc(O)cc3[C@]1(C)CCN2CCNc1ccccc1` (as salt: oxalate) [5a, (2R,6R,11R)-3-(2-Anilinoethyl)-6,11-dimethyl-1,2,3,4,5,6-hexahydro-2,6-methano-3-benzazocin-8-ol], the melting point was 145 to 146 °C.
In turn, `C[C@H]1[C@H]2Cc3ccc(O)cc3[C@]1(C)CCN2CCNC1CCCCC1` (as salt: oxalate) [5b, (2R,6R,11R)-3-[2-(Cyclohexylamino)ethyl)-6,11-dimethyl-1,2,3,4,5,6-hexahydro-2,6-methano-3-benzazocin-8-ol] showed a melting point of 153 to 155 °C.
Still for that read-out and setting: under `CCN(CCN1CC[C@@]2(C)c3cc(O)ccc3C[C@@H]1[C@@H]2C)c1ccccc1` (as salt: oxalate) [5d, (2R,6R,11R)-6,11-Dimethyl-{2-[ethyl(phenyl)amino]ethyl}-1,2,3,4,5,6-hexahydro-2,6-methano-3-benzazocin-8-ol] stands 158 to 160 °C.
The same measure, in the same setting: in the case of `C[C@H]1[C@H]2Cc3ccc(O)cc3[C@]1(C)CCN2CCCNc1ccccc1` (as salt: oxalate) [6a, (2R,6R,11R)-3-(3-Anilinopropyl)-6,11-dimethyl-1,2,3,4,5,6-hexahydro-2,6-methano-3-benzazocin-8-ol] it was 149 to 150 °C.
Still for that read-out and setting: under `C[C@H]1[C@H]2Cc3ccc(O)cc3[C@]1(C)CCN2CCCNC1CCCCC1` (as salt: oxalate) [6b, (2R,6R,11R)-3-[3-(Cyclohexylamino)propyl)-6,11-dimethyl-1,2,3,4,5,6-hexahydro-2,6-methano-3-benzazocin-8-ol] stands 136 to 138 °C; under `C[C@H]1[C@H]2Cc3ccc(O)cc3[C@]1(C)CCN2CCCN(C)c1ccccc1` (as salt: oxalate) [6c, (2R,6R,11R)-6,11-Dimethyl-{3-[methyl(phenyl)amino]propyl}-1,2,3,4,5,6-hexahydro-2,6-methano-3-benzazocin-8-ol], 140 to 142 °C; under `CCN(CCCN1CC[C@@]2(C)c3cc(O)ccc3C[C@@H]1[C@@H]2C)c1ccccc1` (as salt: oxalate) [6d, (2R,6R,11R)-6,11-Dimethyl-{3-[ethyl(phenyl)amino]propyl}-1,2,3,4,5,6-hexahydro-2,6-methano-3-benzazocin-8-ol], 138 to 139 °C.
What is called Ki is a dissociation constant, usually derived from enzyme kinetics or from competition with a known ligand. A high value points to weaker binding. For orientation: IC50 means the concentration that inhibits the measured activity by half. Read a high IC50 as lower potency. For the compound `C[C@H]1[C@H]2Cc3ccc(O)cc3[C@]1(C)CCN2CCNc1ccccc1` [5a, (2R,6R,11R)-3-(2-Anilinoethyl)-6,11-dimethyl-1,2,3,4,5,6-hexahydro-2,6-methano-3-benzazocin-8-ol], the Ki in data set [1] was 270 ± 10 nM; in data set [2], 83 ± 30 nM; in data set [3], 100 ± 5 nM. Besides, the Emax in data set [4] came out at 60 ± 4%. For the same compound, the midpoint of inhibition in data set [5], the IC50, lay at 1000 ± 65 nM.
Consider `C[C@H]1[C@H]2Cc3ccc(O)cc3[C@]1(C)CCN2CCNC1CCCCC1` [5b, (2R,6R,11R)-3-[2-(Cyclohexylamino)ethyl)-6,11-dimethyl-1,2,3,4,5,6-hexahydro-2,6-methano-3-benzazocin-8-ol], for which the Ki in data set [1] worked out at 70 ± 2 nM; in data set [2] it was 8.3 ± 0.8 nM; in data set [3], 19.8 ± 0.9 nM. Further, the Emax in data set [4] was found to be 28 ± 1%. Also, inhibition in data set [5] was half-maximal at 180 ± 50 nM (IC50). Moreover, the “Imax (%) ± SD KOR” value in data set [5] was 58 ± 4%.
In general, ED50 refers to the midpoint of the dose-response relation. On to `C[C@H]1[C@H]2Cc3ccc(O)cc3[C@]1(C)CCN2CCN(C)c1ccccc1` [5c, (2R,6R,11R)-6,11-Dimethyl-{2-[methyl(phenyl)amino]ethyl}-1,2,3,4,5,6-hexahydro-2,6-methano-3-benzazocin-8-ol], for which the Ki stood at 147 ± 5.7 nM in data set [1], 6.1 ± 0.5 nM in data set [2] and 31 ± 1.3 nM in data set [3]. Besides, the ED50 in data set [6] (0.75 h, mouse tail flick, ip, 45 min post-treatment, read-out: ED50 (95% CL)) came to 4.33 mg/kg. Moreover, the “Time of maximal antinociceptive activity” value in data set [6] (after ip injection, mouse tail flick) was 45 min. Further, the “Duration of significant antinociceptive activity” value in data set [6] (highest dose (7 mg/kg ip), after injection) is 75 min. The “Effect of naloxone pretreatment on antinociception” value in data set [6] (naloxone 3 mg/kg sc, 30 min prior to 5c, data not shown) is on record as “prevented its antinociceptive effect”. Besides, the “Functional profile at MOR” value in data set [4] (cAMP accumulation) was “MOR agonist”. Further, the Emax in data set [4] stood at 72%. Moreover, the cAMP inhibition in data set [5] was 30%.
Consider `CCN(CCN1CC[C@@]2(C)c3cc(O)ccc3C[C@@H]1[C@@H]2C)c1ccccc1` [5d, (2R,6R,11R)-6,11-Dimethyl-{2-[ethyl(phenyl)amino]ethyl}-1,2,3,4,5,6-hexahydro-2,6-methano-3-benzazocin-8-ol], for which the values for the Ki in data set [1], in data set [2] and in data set [3] were 411 ± 14 nM, 160 ± 7 nM and 28.7 ± 1 nM, respectively. The Emax in data set [4] came out at 55 ± 3%. The compound further returned a cAMP inhibition in data set [5] of 30%.
For the compound `C[C@H]1[C@H]2Cc3ccc(O)cc3[C@]1(C)CCN2CCCNc1ccccc1` [6a, (2R,6R,11R)-3-(3-Anilinopropyl)-6,11-dimethyl-1,2,3,4,5,6-hexahydro-2,6-methano-3-benzazocin-8-ol], the Ki in data set [1] was determined as 117 ± 5.2 nM; in data set [2], 7 ± 0.6 nM; in data set [3] it was 71 ± 2 nM. In data set [4], the Emax turned out to be 50 ± 3%. Moreover, in data set [5], the IC50 turned out to be 1400 ± 69 nM. Further, the “Imax (%) ± SD KOR” value in data set [5] is on record as 53 ± 4%.
Regarding `C[C@H]1[C@H]2Cc3ccc(O)cc3[C@]1(C)CCN2CCCNC1CCCCC1` [6b, (2R,6R,11R)-3-[3-(Cyclohexylamino)propyl)-6,11-dimethyl-1,2,3,4,5,6-hexahydro-2,6-methano-3-benzazocin-8-ol], the Ki in data set [1] was > 5000 nM; in data set [2], 48 ± 1.4 nM; in data set [3] it was 126 ± 4.5 nM. In data set [5], the IC50 is > 5000 nM. For the same compound, the “Imax (%) ± SD KOR” value in data set [5] turned out to be 44 ± 3%.
Turning to `C[C@H]1[C@H]2Cc3ccc(O)cc3[C@]1(C)CCN2CCCN(C)c1ccccc1` [6c, (2R,6R,11R)-6,11-Dimethyl-{3-[methyl(phenyl)amino]propyl}-1,2,3,4,5,6-hexahydro-2,6-methano-3-benzazocin-8-ol], the Ki is > 5000 nM in data set [1], 68 ± 1.6 nM in data set [2] and 94 ± 3.5 nM in data set [3]. Further, the Emax in data set [4] was 50 ± 3%. In addition, in data set [5], the cAMP inhibition is on record as 30%.
`CCN(CCCN1CC[C@@]2(C)c3cc(O)ccc3C[C@@H]1[C@@H]2C)c1ccccc1` [6d, (2R,6R,11R)-6,11-Dimethyl-{3-[ethyl(phenyl)amino]propyl}-1,2,3,4,5,6-hexahydro-2,6-methano-3-benzazocin-8-ol]: the Ki in data set [1] stood at 1060 ± 152 nM; in data set [2] it was 86 ± 3 nM; in data set [3], 56 ± 1.7 nM. Besides, the Emax in data set [4] worked out at 40 ± 2%. Further, the cAMP inhibition in data set [5] was 30%.
`C[C@@H](NC(=O)[C@@H](N)Cc1ccc(O)cc1)C(=O)NCC(=O)N(C)[C@@H](Cc1ccccc1)C(=O)NCCO` [DAMGO, reference compound]: the Emax in data set [4] is 73 ± 0.3%.
The compound `Oc1ccc2c3c1O[C@H]1c4[nH]c5ccccc5c4C[C@@]4(O)[C@@H](C2)N(CC2CC2)CC[C@]314` [Naltrindole, reference compound] yielded a Ki in data set [1] of 1.13 ± 0.1 nM.
